Experimental data: patent US10058633B2, “Biodegradable scaffolds” (Board of Regents of the University of Texas System, priority 2010, dated 2018)

Test system: Human umbilical vein endothelial cells (HUVEC)
Test: Cellular uptake of FITC-BSA released from PLGA/pSi microspheres (transwell, confocal)
Type: cell-based
Conditions: 7 days
Description: 40,000 HUVEC were seeded and cultured on a glass coverslip in a 12 well plate with 500 million PLGA/pSi microspheres loaded with FITC-BSA in a transwell on top of the cells. The media were changed every 3 days. Cellular uptake of FITC-BSA released from the PLGA/pSi microspheres was observed by confocal microscopy staining cells with fluorescent phalloidin (actin filaments) and DRAQ5 (nuclei) after fixation (10% formaldehyde).
Detection of the FITC-BSA loaded pSi particles was based on autofluorescence using 488 excitation laser and the cells were analyzed by using 561 and 632 excitation laser for pholloidin and DRAQ5 respectively. Images were acquired using a Leica MD 6000 upright confocal microscope equipped with a 63× oil immersion objective.

BSA in solution: control group: bovine serum albumin in solution
BSA accumulation in cells: did not show any BSA accommulation in cells
